Measured values published in publication PMC12603070, “A high-throughput screening approach to discover potential colorectal cancer chemotherapeutics: repurposing drugs to identify novel disruptors of 14-3-3 proteins” (Cell Death & Disease, 2025).
Where a name gives a salt, the structure may show the parent alone. Read-outs that look alike come from different tables or passages of the source.

Legend:
[1] = target: T1, 14-3-3ζ:BAD-112-136F interactions (Homo sapiens, UniProt P63104); experiment: BRET sensor screen for disruption of 14-3-3ζ-Rluc8:BAD-112-136F-mCitrine in living NIH-3T3 cells; format: cell-based, murine; design: inhibition: dose or concentration left out as unconfirmed; conditions: for inhibition at 20 µM / inhibition: NIH3T3, 3 h, read-out: BRET reduction on NIH-3T3
T1 construct: expressed in transfected cells; host or cells: NIH-3T3 fibroblasts, bi-directional pBI-CMV1 plasmid
T1 sequence (P63104 1-245): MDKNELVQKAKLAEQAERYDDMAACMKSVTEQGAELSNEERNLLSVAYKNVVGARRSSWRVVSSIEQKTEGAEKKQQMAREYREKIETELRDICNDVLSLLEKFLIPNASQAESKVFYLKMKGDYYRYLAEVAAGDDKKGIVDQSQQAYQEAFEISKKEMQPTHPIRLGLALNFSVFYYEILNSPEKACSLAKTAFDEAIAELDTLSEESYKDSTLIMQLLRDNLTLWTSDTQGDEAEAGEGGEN
Experimental: The Z’-score, which evaluates the robustness of an HTS assay readout, was calculated according to standard protocols. For the HTS, 384-well plates were coated with 100 μg/mL poly-L-ornithine (Sigma, Missouri, United States; #P3655) overnight at 37 °C, followed by rinsing with sterilized water. NIH-3T3 cells were transfected with the BRET sensor two days prior to experimentation, followed by replating onto the pre-coated 384-well plates at a density of 20,000 cells/well. After 24 h of incubation at 37 °C, growth media was replaced by Krebs buffer (pH 7.4).

[2] = test system: NIH-3T3 cells; experiment: Hoechst/propidium iodide cell death assay in NIH-3T3; format: cell-based; conditions: for cytotoxicity at 20 µM: Mus musculus, NIH3T3, 24 h, read-out: Percentage of cell death % 24h NIH3t3
Source text: (§1) A high-content imaging system (PerkinElmer; Operetta CLS), was used to quantify cell death and apoptosis by calculating the number of propidium iodide-positive cells relative to Hoechst-positive cells, and the number of Annexin V-positive cells relative to Hoechst-positive cells, respectively.

[3] = test system: HT-29 cells; experiment: Hoechst/propidium iodide cell death assay in HT-29; format: cell-based, human; conditions: Homo sapiens
Source text: as §1

[4] = NIH-3T3 cells, hits from the primary screen
[5] = HT-29, 24 h, read-out: Percentage of cell death % 24h HT-29
[6] = HT-29, 48 h, read-out: Percentage of cell death % 48h, HT-29
[7] = NIH-3T3 expressing BRET sensor, 20 µM, 3 h
[8] = HT-29, 24 h, 20 µM, 24 h, read-out: Percentage of cell death % 24h HT-29
[9] = HT-29, 48 h, HT-29, 48h, 20 μM, read-out: Percentage of cell death % 48h, HT-29

Row | SMILES | inhibition at 20 µM [1] [%] | BRET reduction on NIH-3T3 [1, 4] | cytotoxicity at 20 µM [2] [%] | Percentage of cell death % 48h, NIH3T3 [2] [%] | cytotoxicity at 20 µM [3, 5] [%] | cytotoxicity at 20 µM [3, 6] [%] | inhibition [1, 4] [%] | inhibition at 20 µM [1, 7] [%] | cytotoxicity at 20 µM ([2]; 20 µM, 24 h) [%] | cytotoxicity at 20 µM [3, 8] [%] | cytotoxicity at 20 µM [3, 9] [%]
1 | COc1cc(C)c(/C=C/C(C)=C/C=C/C(C)=C/C(=O)O)c(C)c1C [Acitretin] | 31.9 | 31.8517 | 0.791 | 1.816 | 0.862 | 1.82 |  |  |  |  | 
2 | C[C@@H](O[C@H]1OCCN(Cc2n[nH]c(=O)[nH]2)[C@H]1c1ccc(F)cc1)c1cc(C(F)(F)F)cc(C(F)(F)F)c1 [Aprepitant] |  |  |  | 2.577 |  |  | 26.6 | 26.6 | 1.15 | 1.47 | 3.76
3 | C=C[C@@H]1C[C@]1(NC(=O)[C@@H]1C[C@@H](Oc2ncc(OC)c3ccc(Cl)cc23)CN1C(=O)[C@@H](NC(=O)OC(C)(C)C)C(C)(C)C)C(=O)NS(=O)(=O)C1CC1 [Asunaprevir (BMS-650032), Asunaprevir] |  |  |  | 2.12 |  |  | 41.4 | 41.4 | 3.04 | 1.15 | 3.86
4 | CC(C)(C)CC(C)(C)c1ccc(OCCOCC[N+](C)(C)Cc2ccccc2)cc1 [Benzethonium Chloride] |  |  | 51.9 | 51.9198 | 43.5 | 90.4 |  |  |  |  | 
5 | C=C(c1ccc(C(=O)O)cc1)c1cc2c(cc1C)C(C)(C)CCC2(C)C [Bexarotene] |  |  |  | 2.3561 |  |  | 29.5 | 29.5 | 3.81 | 0.535 | 4.19
6 | c1ccc(-c2ccc(C(c3ccccc3)n3ccnc3)cc2)cc1 (stereo not shown) [Bifonazole] |  |  |  | 0.5325 |  |  | 32.1 | 32.1 | 0.428 | 1.45 | 2.62
7 | CCN1CCN(c2cc(-c3ccc(F)cc3)c3c(n2)CCCCCC3)CC1 [Blonanserin] |  |  |  | 1.273 |  |  | 25.1 | 25.1 | 1.45 | 2.57 | 15.5
8 | Clc1ccc(CCC(Cn2ccnc2)Sc2c(Cl)cccc2Cl)cc1 (stereo not shown) [Butoconazole nitrate] |  |  |  | 1.36 |  |  | 45.1 | 45.1 | 1.23 | 1.75 | 3.36
9 | C=C1/C(=C\C=C2/CCC[C@]3(C)[C@@H]([C@H](C)/C=C/[C@@H](O)C4CC4)CC[C@@H]23)C[C@@H](O)C[C@@H]1O [Calcipotriol] |  |  |  | 2.028 |  |  | 31.7 | 31.7 | 0.552 | 0.559 | 0.922
10 | C=C1/C(=C\C=C2/CCC[C@]3(C)[C@@H]([C@H](C)CCCC(C)(C)O)CC[C@@H]23)C[C@@H](O)C[C@@H]1O [Calcitriol] |  |  |  | 1.321 |  |  |  |  | 1.56 | 0.461 | 0.982
11 | CCOc1nc2cccc(C(=O)OC(C)OC(=O)OC3CCCCC3)c2n1Cc1ccc(-c2ccccc2-c2nnn[nH]2)cc1 (stereo not shown) [Candesartan Cilexetil] |  |  |  | 2.478 |  |  | 44.9 | 44.9 | 12.2 | 1.16 | 1.91
12 | COc1cc2c(Oc3ccc4[nH]c(C)cc4c3F)ncnc2cc1OCCCN1CCCC1 [Cediranib (AZD217), Cediranib] |  |  |  | 55.3041 |  |  | 39.9 | 39.9 | 76.9 | 11.9 | 83.5
13 | C[C@H](CCC(=O)O)[C@H]1CC[C@H]2[C@@H]3[C@H](O)C[C@@H]4C[C@H](O)CC[C@]4(C)[C@H]3CC[C@]12C [Chenodeoxycholic Acid] |  |  |  | 0.2284 |  |  | 31.3 | 31.3 | 0.372 | 1.21 | 2.27
14 | C(=C\c1ccccc1)/CN1CCN(C(c2ccccc2)c2ccccc2)CC1 [Cinnarizine] |  |  |  | 0.3398 |  |  |  |  | 0.412 | 0.381 | 1.26
15 | CN(C)CCCN1c2ccccc2CCc2ccc(Cl)cc21 [Clomipramine HCl] |  |  |  | 8.7601 |  |  | 27 | 27 | 7.72 | 0.662 | 2.3
16 | Clc1ccccc1C(c1ccccc1)(c1ccccc1)n1ccnc1 [Clotrimazole] |  |  |  | 1.657 |  |  | 30.1 | 30.1 | 0.937 | 0.234 | 0.787
17 | CN(C)c1ccc(C(=C2C=CC(=[N+](C)C)C=C2)c2ccc(N(C)C)cc2)cc1 [Crystal Violet] |  |  |  | 91.1305 |  |  | 75.6 | 75.6 | 94.3 | 94.9 | 95.4
18 | COc1cc2ncnc(Nc3ccc(F)c(Cl)c3)c2cc1NC(=O)/C=C/CN1CCCCC1 [Dacomitinib (PF299804, PF299), Dacomitinib] |  |  |  | 75.5856 |  |  | 26.7 | 26.7 | 86.8 | 22.7 | 84.1
19 | C#C[C@]1(O)CC[C@H]2[C@@H]3CCC4=CCCC[C@@H]4[C@H]3C(=C)C[C@@]21CC [Desogestrel] |  |  |  | 8.012 |  |  | 40.6 | 40.6 | 16.1 | 1.59 | 2.12
20 | CC/C(=C(/CC)c1ccc(O)cc1)c1ccc(O)cc1 [Diethylstilbestrol] |  |  |  | 3.653 |  |  | 28.3 | 28.3 | 11.2 | 0.869 | 2.76
21 | Clc1ccc(COC(Cn2ccnc2)c2ccc(Cl)cc2Cl)cc1 (stereo not shown) [Econazole nitrate] |  |  |  | 7.996 |  |  | 48.3 | 48.3 | 14.2 | 8.57 | 13
22 | Clc1ccc(CSC(Cn2ccnc2)c2ccc(Cl)cc2Cl)cc1 (stereo not shown) [Sulconazole Nitrate] |  |  |  | 9.7879 |  |  |  |  | 10.8 | 7.98 | 12.2
